Test results taken from article PMC5900554, “Fragment-Based Approach to Targeting Inosine-5′-monophosphate Dehydrogenase (IMPDH) from Mycobacterium tuberculosis” (Journal of Medicinal Chemistry, 2018).
Where two headings read alike, the source gives them in different places.

Key:
[1] = target: T1, Mth IMPDH ΔCBS (Mycolicibacterium thermoresistibile, UniProt G7CNL4, R236G); experiment: Inhibition constants (Ki) and mode of inhibition against Mth IMPDH ΔCBS with respect to IMP and NAD+; format: biochemical, Mycobacterium thermoresistible; set-up: key to Pattern of inhibition with respect to IMP / Pattern of inhibition with respect to NAD: UC: Uncompetitive inhibition; details: for Pattern of inhibition with respect to IMP / Pattern of inhibition with respect to NAD: UC = uncompetitive; for Pattern of inhibition with respect to NAD / NAD αKi: with respect to NAD+; for NAD αKi: constant saturating IMP (1 mM); for Pattern of inhibition with respect to IMP / IMP αKi: with respect to IMP; for IMP αKi: fixed saturating NAD+ ([…])
Experimental: The inhibition constant [Ki] with respect to both substrates IMP and NAD^+ was determined by assaying various concentrations of each inhibitor with five different concentrations of substrate and a fixed saturating concentration of the cosubstrate.
(§1) The initial velocities at various inhibitor concentrations were determined based on the slope in the linear part of each reaction containing the inhibitor and the uninhibited reaction. To determine the inhibition constant (Ki values), the initial rate data versus substrate concentration at different inhibitor concentrations were fit using Prism software (GraphPad) to equations for uncompetitive or mixed inhibition. For each inhibitor concentration, the reciprocal of enzyme reaction velocity versus the reciprocal of the substrate concentration was plotted in a Lineweaver–Burk plot to determine the pattern of inhibition.

[2] = target: full-length Mtb IMPDH (Mycobacterium tuberculosis, UniProt P9WKI7); experiment: Inhibition constants toward full-length Mtb IMPDH; format: biochemical
Experimental: as §1

[3] = target: T1, Mth IMPDH ΔCBS; format: biochemical, Mycobacterium thermoresistible; details: SAR statement in text
[4] = IMP as the substrate, read-out: Ki with IMP as the substrate
[5] = NAD as the substrate, read-out: Ki with NAD as the substrate

| Structure (SMILES) | Pattern of inhibition with respect to IMP [1] | Pattern of inhibition with respect to NAD [1] | NAD αKi [1] [µM] | IMP αKi [1] [µM] | Ki [2, 4] [µM] | Ki [2, 5] [µM] | Mth IMPDH ΔCBS inhibitory activity (in words) [3] |
| --- | --- | --- | --- | --- | --- | --- | --- |
| COc1ccc(OC(C)C(=O)Nc2ccc(I)cc2)cc1 (centres unmarked) [Compound 1, reference compound] | uncompetitive and UC | uncompetitive and UC | 0.55 ± 0.02 | – | – | – | – |
| Brc1ccc(-c2c[nH]cn2)cc1 [Compound 2] | uncompetitive and UC | uncompetitive and UC | 512 ± 23 | 609 ± 3 | 572 ± 14 | 534 ± 18 | – |
| Oc1ccc2ccc(O)cc2c1 [Compound 11] | uncompetitive and UC | UC | 310 ± 30 | 361 ± 53 | – | – | – |
| O=C(O)c1cc2sccc2s1 [Compound 14] | Mixed | UC | 262 ± 39 | 238 ± 6 | – | – | – |
| Cc1ccc(-c2nc(C(=O)O)cs2)cc1 [Compound 16] | Mixed | UC | 525 ± 64 | – | – | – | – |
| CC(=O)Nc1cc(C)ccc1O [Compound 18] | uncompetitive and UC | UC | 452 ± 26 | 554 ± 70 | – | – | – |
| CC1(C)Cc2cccc(CO)c2O1 [Compound 19] | Mixed | UC | 355 ± 47 | 126 ± 34 | – | – | – |
| CC(C)NC(=O)CSc1nc(-c2ccccc2)c[nH]1 [Compound 26, N-Isopropyl-2-((4-phenyl-1H-imidazol-2-yl)thio)acetamide] | – | – | – | – | – | – | complete loss of activity |
| O=C(O)CSc1nc(-c2ccc(Br)cc2)c[nH]1 [Compound 27, 2-((4-(4-Bromophenyl)-1H-imidazol-2-yl)thio)acetic Acid] | – | – | – | – | – | – | complete loss in activity |
| O=C(O)CSc1nc(-c2ccccc2)c[nH]1 [Compound 28, 2-((4-Phenyl-1H-imidazol-2-yl)thio)acetic Acid] | – | – | – | – | – | – | complete loss in activity |
| CC(Oc1ccc(-c2cn(C)cn2)cc1)C(=O)Nc1nc(-c2ccc(Br)cc2)c[nH]1 (centres unmarked) [Compound 31, N-(4-(4-Bromophenyl)-1H-imidazol-2-yl)-2-(4-(1-methyl-1H-imidazol-4-yl)phenoxy)propanamide] | uncompetitive | uncompetitive | 0.20 ± 0.01 | 0.30 ± 0.02 | 0.61 ± 0.05 | 0.39 ± 0.02 | – |
| CC(Oc1ccc(-c2cn(C)cn2)cc1)C(=O)Nc1ccccc1 (centres unmarked) [Compound 34, 2-(4-(1-Methyl-1H-imidazol-4-yl)phenoxy)-N-phenylpropanamide] | – | – | – | – | – | – | complete loss of activity |
